US20010034357A1, “Substituted pyridine compounds useful for controlling chemical synaptic transmission” (priority 2000, published 2001)
Like-named read-outs stand apart in the source and are kept apart here.

Tests used:
[1] = biological target: T1, neuronal nicotinic acetylcholine receptors (Rattus norvegicus, UniProt P09483+P12390); assay: [3H]-cytisine binding to neuronal nicotinic acetylcholine receptors, crude synaptic membranes from whole rat brain
T1 construct: crude synaptic membrane preparations from whole rat brain; from tissue; host or cells: whole rat brain, crude synaptic membranes
Description: The in vitro protocols for determination of nicotinic acetylcholine channel receptor binding potencies of ligands was determined as follows.
Binding of [^3H]-cytisine ([^3H]-CYT) to neuronal nicotinic acetylcholine receptors was accomplished using crude synaptic membrane preparations from whole rat brain (Pabreza et al., Molecular Pharmacol., 1990, 39:9). Washed membranes were stored at −80° C. prior to use. Frozen aliquots were slowly thawed and resuspended in 20 volumes of buffer (containing: 120 mM NaCl, 5 mM KCl, 2 mM MgCl2, 2 mM CaCl2 and 50 mM Tris-Cl, pH 7.4 @4° C.). After centrifuging at 20,000×g for 15 minutes, the pellets were resuspended in 30 volumes of buffer.
The test compounds were dissolved in water to make 10 mM stock solutions. Each solution was then diluted (1:100) with buffer (as above) and further taken through seven serial log dilutions to produce test solutions from 10^−5 to 10^−11 M.
Homogenate (containing 125-150 µg protein) was added to triplicate tubes containing the range of concentrations of test compound described above and [^3H]-CYT (1.25 nM) in a final volume of 500 μL. Samples were incubated for 60 minutes at 4° C., then rapidly filtered through Whatman GF/B filters presoaked in 0.5% polyethyleneimine using 3×4 mL of ice-cold buffer. The filters are counted in 4 mL of Ecolume® (ICN). Nonspecific binding was determined in the presence of 10 μM (−)-nicotine and values were expressed as a percentage of total binding. IC50 values were determined with a four-parameter non-linear regression and IC50 values were converted to K1 values using the Cheng and Prusoff correction (K1=IC50/(1+[ligand]/Kd of ligand).
Each Example number corresponds to the synthetic Examples described above. […] The lower the Ki value, the more affinity for neuronal nicotinic acetylcholine receptors.

mouse hot plate paradigm = mouse hot plate paradigm (analgesia, latency until tenth jump); type: in vivo; conditions: mice, intraperitoneal, dosed 30 minutes prior to testing, hot plate 55° C.; for Analgesic MED: minimally effective dose among the doses tested; for Analgesic MED (μmol/kg): footnote symbols for no effect
Description: An in vivo protocol was utilized to determine the effectiveness of nicotinic acetylcholine receptor ligands as analgesic agents in the mouse hot plate paradigm.
Separate groups of mice, (n=8/group) were utilized for each dose group. All drugs were administered by the intraperitoneal route of administration. Test drugs were dissolved in water to make a 6.2 mM stock solution. Animals were dosed with this solution (10 mL/kg body weight) for a 62 micromol/kg dose. Lower doses were administered similarly, following serial dilution of the stock solution in half-log increments. Animals were dosed 30 minutes prior to testing in the hot plate. The hot-plate utilized was an automated analgesia monitor (Model #AHP16AN, Omnitech Electronics, Inc. of Columbus, Ohio). The temperature of the hot plate was maintained at 55° C. and a cut-off time of 180 seconds was utilized. A control was run against each compound tested. Latency until the tenth jump was recorded as the dependent measure. An increase in the tenth jump latency relative to the control was considered a significant effect.

[2] = [3H]-CYT 1.25 nM, whole rat brain membranes, 60 minutes at 4° C., Cheng and Prusoff correction, Table 1, read-out: Ki
[3] = [3H]-CYT 1.25 nM, whole rat brain membranes, 60 minutes at 4° C., Cheng and Prusoff correction, Table 2, read-out: K1 (nm)

T1 sequence (P09483 31-630): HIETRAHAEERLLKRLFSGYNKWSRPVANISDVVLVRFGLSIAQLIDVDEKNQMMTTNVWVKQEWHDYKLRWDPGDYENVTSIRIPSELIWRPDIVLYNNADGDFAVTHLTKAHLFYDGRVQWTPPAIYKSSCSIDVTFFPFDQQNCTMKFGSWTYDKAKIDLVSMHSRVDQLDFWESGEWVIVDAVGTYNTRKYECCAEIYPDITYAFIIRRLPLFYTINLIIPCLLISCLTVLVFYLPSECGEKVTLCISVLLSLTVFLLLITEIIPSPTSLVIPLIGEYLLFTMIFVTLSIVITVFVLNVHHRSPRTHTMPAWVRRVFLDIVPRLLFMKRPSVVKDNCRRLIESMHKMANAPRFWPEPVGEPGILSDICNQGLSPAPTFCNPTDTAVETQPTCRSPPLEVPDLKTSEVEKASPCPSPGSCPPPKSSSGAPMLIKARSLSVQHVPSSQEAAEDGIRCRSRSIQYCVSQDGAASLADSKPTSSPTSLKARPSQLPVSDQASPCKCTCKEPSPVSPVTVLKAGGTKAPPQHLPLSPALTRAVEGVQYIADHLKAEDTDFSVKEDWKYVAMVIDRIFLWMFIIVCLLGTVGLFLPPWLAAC
T1 sequence (P12390 25-500): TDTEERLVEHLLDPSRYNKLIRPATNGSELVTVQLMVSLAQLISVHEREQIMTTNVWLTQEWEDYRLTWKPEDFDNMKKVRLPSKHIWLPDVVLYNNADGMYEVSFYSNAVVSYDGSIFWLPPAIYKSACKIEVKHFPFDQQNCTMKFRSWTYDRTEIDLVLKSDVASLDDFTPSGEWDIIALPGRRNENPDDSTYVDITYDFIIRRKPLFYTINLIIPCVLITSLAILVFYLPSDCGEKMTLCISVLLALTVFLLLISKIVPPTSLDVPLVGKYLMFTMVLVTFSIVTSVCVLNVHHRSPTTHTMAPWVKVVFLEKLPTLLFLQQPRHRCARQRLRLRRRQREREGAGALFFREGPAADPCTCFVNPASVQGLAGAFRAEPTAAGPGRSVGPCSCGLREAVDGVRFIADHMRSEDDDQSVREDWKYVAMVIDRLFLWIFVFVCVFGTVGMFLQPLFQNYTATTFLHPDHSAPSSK

Row | Compound | Ki [1, 2] [nM] | further results
1 | CC[C@@H](COc1ccc(F)nc1)NC [Example 17, 5-[(S)-2-methylamino-1-butyloxy]-2-fluoro pyridine p-toluenesulfonic acid] | 225 | 
2 | C[C@@H](N)COc1ccc(F)nc1.Cc1ccc(S(=O)(=O)O)cc1 [Example 29, 5-[(R)-2-amino-1-propyloxy]-2-fluoro pyridine p-toluenesulfonic acid] | 6.6 | Analgesic MED (mouse hot plate paradigm): 62 µmol/kg
3 | C[C@@H](COc1cnc(Cl)c(Br)c1)N(C)C.Cc1ccc(S(=O)(=O)O)cc1 [Example 8, 5-[(S)-2-dimethylamino-1-propyloxy]-2-chloro-3-bromo pyridine p-toluenesulfonic acid] | 30.8 | Analgesic MED (mouse hot plate paradigm): 62 µmol/kg
4 | CN(C)[C@H](COc1cnc(Cl)c(Br)c1)Cc1ccccc1 [Example 22, 5-[(S)-2-dimethylamino-3-phenyl-1-propyloxy]-2-chloro-3-bromo pyridine p-toluenesulfonic acid] | 319 | 
5 | C[C@H](N)COc1ccc(Cl)nc1.Cc1ccc(S(=O)(=O)O)cc1 [Example 1, 5-[(S)-2-amino-1-propyloxy]-2-chloro pyridine p-toluenesulfonic acid] | 4.51 | Analgesic MED (mouse hot plate paradigm): 62 µmol/kg
6 | Cc1cc(OCCC(C)N)cnc1Cl (stereo not drawn) [Example 49, 5-(3-Amino-1-butyloxy)-2-chloro-3-methyl-pyridine p-toluenesulfonic acid] |  | Ki [1, 3]: 25 nM
7 | Cc1cc(OC[C@@H](C)N(C)C)cnc1Cl.Cc1ccc(S(=O)(=O)O)cc1 [Example 36, 5-[(R)-2-dimethylamino-1-propyloxy]-2-chloro-3-methyl pyridine p-toluenesulfonic acid] | 7.2 | Analgesic MED (μmol/kg) (mouse hot plate paradigm): * (no effect at 62)
8 | 5-[(S)-2-amino-3-phenyl-1-propyloxy]-2-chloro-3-(4-vinylpyridinyl) pyridine di-p-toluenesulfonic acid [Example 23] | 9.89 | Analgesic MED (μmol/kg) (mouse hot plate paradigm): * (no effect at 62)
9 | CC(CCOc1cnc(Cl)c(Br)c1)N(C)C (stereo not drawn) [Example 46, 5-(3-Dimethylamino-1-butyloxy)-2-chloro-3-bromopyridine p-toluenesulfonic acid] |  | Ki [1, 3]: 3.1 nM
10 | CC(N)COc1ccc(Cl)nc1 (stereo in doubt) [Example 26, 5-[(S)-2-amino-1-propyloxy]-2-chloro pyridine p-toluenesulfonic acid] |  | Ki ([1]; Ki (nM)): 5.34 nM; Analgesic MED (mouse hot plate paradigm): 62 µmol/kg
11 | C[C@H](N)COc1cnc(Cl)c(Br)c1.Cc1ccc(S(=O)(=O)O)cc1 [Example 7, 5-[(S)-2-amino-1-propyloxy]-2-chloro-3-bromo pyridine p-toluenesulfonic acid] | 1.55 | Analgesic MED (μmol/kg) (mouse hot plate paradigm): * (no effect at 62)
12 | 5-[(R)-2-methylamino-1-propyloxy]-2-chloro-3-(4-vinylpyridinyl) pyridine p-toluenesulfonic acid [Example 40] | 0.0757 | 
13 | CN[C@@H](C)COc1ccc(Cl)nc1.Cc1ccc(S(=O)(=O)O)cc1 [Example 3, 5-[(S)-2-methylamino-1-propyloxy]-2-chloro pyridine p-toluenesulfonic acid] | 40.6 | Analgesic MED (mouse hot plate paradigm): 62 µmol/kg
14 | 5-[(S)-2-methylamino-3-phenyl-1-propyloxy]-2-chloro-3-(4-vinylpyridinyl) pyridine di-p-toluenesulfonic acid [Example 25] | 2.61 | 
15 | CN[C@H](C)COc1cnc(Cl)c(Br)c1.Cc1ccc(S(=O)(=O)O)cc1 [Example 34, 5-[(R)-2-methylamino-1-propyloxy]-2-chloro-3-bromo pyridine p-toluenesulfonic acid] | 1.48 | Analgesic MED (μmol/kg) (mouse hot plate paradigm): * (no effect at 62)
16 | CC(N)CCOc1cnc(Cl)c(Br)c1 (stereo not drawn) [Example 47, 5-(3-Amino-1-butyloxy)-2-chloro-3-bromo-pyridine p-toluenesulfonic acid] |  | Ki [1, 3]: 31 nM
17 | CC(COc1ccc(Cl)nc1)N(C)C (stereo in doubt) [Example 27, 5-[(S)-2-dimethylamino-1-propyloxy]-2-chloro pyridine p-toluenesulfonic acid] |  | Analgesic MED (μmol/kg) (mouse hot plate paradigm): * (no effect at 62)

Row | Compound | Ki [1, 2] [nM] | further results
18 | C[C@@H](N)COc1cnc(Cl)c(C=Cc2ccncc2)c1 [Example 38, 5-[(R)-2-amino-1-propyloxy]-2-chloro-3-(4-vinylpyridinyl) pyridine p-toluenesulfonic acid] | 0.0809 | 
19 | C[C@H](N)COc1cnc(Cl)c(C=Cc2ccncc2)c1.Cc1ccc(S(=O)(=O)O)cc1 [Example 13, 5-[(S)-2-amino-1-propyloxy]-2-chloro-3-(4-vinylpyridinyl) pyridine p-toluenesulfonic acid] | 0.0761 | Analgesic MED (μmol/kg) (mouse hot plate paradigm): * (no effect at 62)
20 | CN[C@@H](C)COc1ccc(F)nc1.Cc1ccc(S(=O)(=O)O)cc1 [Example 6, 5-[(S)-2-methylamino-1-propyloxy]-2-fluoro pyridine p-toluenesulfonic acid] | 68.9 | Analgesic MED (μmol/kg) (mouse hot plate paradigm): * (no effect at 62)
21 | C[C@@H](COc1ccc(F)nc1)N(C)C.Cc1ccc(S(=O)(=O)O)cc1 [Example 5, 5-[(S)-2-dimethylamino-1-propyloxy]-2-fluoro pyridine p-toluenesulfonic acid] | 100 | Analgesic MED (μmol/kg) (mouse hot plate paradigm): * (no effect at 62)
22 | Cc1cc(OC[C@H](C)N)cnc1Cl.Cc1ccc(S(=O)(=O)O)cc1 [Example 10, 5-[(S)-2-amino-1-propyloxy]-2-chloro-3-methyl pyridine p-toluenesulfonic acid] | 0.525 | Analgesic MED (mouse hot plate paradigm): 62 µmol/kg
23 | Cc1cc(OCCC(C)N(C)C)cnc1Cl (stereo not drawn) [Example 48, 5-(3-dimethylamino-1-butyloxy]-2-chloro-methylpyridine p-toluenesulfonic acid] |  | Ki [1, 3]: 1.3 nM
24 | CC[C@H](N)COc1cnc(Cl)c(Br)c1.Cc1ccc(S(=O)(=O)O)cc1 [Example 18, 5-[(S)-2-amino-1-butyloxy]-2-chloro-3-bromo pyridine p-toluenesulfonic acid] | 14.8 | Analgesic MED (μmol/kg) (mouse hot plate paradigm): * (no effect at 62)
25 | CC(N)CCOc1ccc(Cl)nc1 (stereo not drawn) [Example 44, 5-(3-Amino-1-butyloxy)-2-chloropyridine p-toluenesulfonate] |  | Ki [1, 3]: 20 nM
26 | CCN[C@H](C)COc1ccc(Cl)nc1 [Example 41, 5-[(R)-2-ethylamino-1-propyloxy]-2-chloro pyridine p-toluenesulfonic acid] | 2310 | 
27 | CC(N)CCOc1ccc(F)nc1 (stereo not drawn) [Example 43, 5-(3-Amino-1-butyloxy)-2-fluoro pyridine p-toluenesulfonic acid] |  | Ki [1, 3]: 122 nM
28 | C[C@H](COc1cnc(Cl)c(Br)c1)N(C)C [Example 33, 5-[(R)-2-dimethylamino-1-propyloxy]-2-chloro-3-bromo pyridine p-toluenesulfonic acid] | 11.9 | 
29 | CCCN[C@H](C)COc1ccc(Cl)nc1 [Example 42, 5-[(R)-2-(1-propyl)amino-1-propyloxy]-2-chloro pyridine p-toluenesulfonic acid] | 7530 | 
30 | CC[C@H](N)COc1ccc(F)nc1 [Example 16, 5-[(S)-2-amino-1-butyloxy]-2-fluoro pyridine p-toluenesulfonic acid] | 39.5 | 
31 | 5-[(S)-2-amino-1-butyloxy]-2-chloro-3-(4-vinylpyridinyl) pyridine di-p-toluenesulfonic acid [Example 19] | 0.18 | 
32 | C[C@@H](COc1ccc(Cl)nc1)N(C)C.Cc1ccc(S(=O)(=O)O)cc1 [Example 2, 5-[(S)-2-dimethylamino-1-propyloxy]-2-chloro pyridine p-toluenesulfonic acid] |  | Analgesic MED (mouse hot plate paradigm): 62 µmol/kg
33 | N[C@H](COc1cnc(Cl)c(Br)c1)Cc1ccccc1 [Example 21, 5-[(S)-2-amino-3-phenyl-1-propyloxy]-2-chloro-3-bromo pyridine p-toluenesulfonic acid] | 102 | 
34 | CC(CCOc1ccc(Cl)nc1)N(C)C (stereo not drawn) [Example 45, 5-(3-Dimethylamino-1-butyloxy]-2-chloro pyridine p-toluenesulfonic acid] |  | Ki [1, 3]: 18 nM
